The results in this text go back to patent publication US20230340011A1 (Asteroid Therapeutics, priority 2022, published 2023).

This assay concerns the target SREBP-2 (Homo sapiens (Human), UniProt Q12772). The assay is described as follows: In vitro assay SREBP-2: PathHunter U2OS SREBP-2 Nuclear Translocation Cell Line, U18666A-stimulated. It is filed as cell-based. The conditions noted are these: PathHunter U2OS SREBP-2 nuclear translocation cells, U18666A 10 μM, overnight (16 hours).

Take `C[C@H](CCC(=O)N1CCC(C(NS(C)(=O)=O)C(F)(F)F)CC1)[C@H]1CC[C@H]2[C@@H]3CC=C4C[C@@H](O)CC[C@]4(C)[C@H]3CC[C@]12C` (stereo partly drawn) [Example 476, N-(2,2,2-trifluoro-1-(1-((R)-4-((3S,8S,9S,10R,13R,14S,17R)-3-hydroxy-10,13-dimethyl-2,3,4,7,8,9,10,11,12,13,14,15,16,17-tetradecahydro-1H-cyclopenta[a]phenanthren-17-yl)pentanoyl)piperidin-4-yl)ethyl)methanesulfonamide]: the 50% inhibitory concentration (IC50) (commonly the concentration that inhibits the measured activity by half) was under 250 nM.

Molecule `C[C@H](CCC(=O)N1CCC(C(NC(=O)C(C)(C)O)C(F)(F)F)CC1)[C@H]1CC[C@H]2[C@@H]3CC=C4C[C@@H](O)CC[C@]4(C)[C@H]3CC[C@]12C` (stereo partly drawn) [Example 479, 2-hydroxy-2-methyl-N-(2,2,2-trifluoro-1-(1-((R)-4-((3S,8S,9S,10R,13R,14S,17R)-3-hydroxy-10,13-dimethyl-2,3,4,7,8,9,10,11,12,13,14,15,16,17-tetradecahydro-1H-cyclopenta[a]phenanthren-17-yl)pentanoyl)piperidin-4-yl)ethyl)propanamide] came in with an IC50 of under 250 nM.

`Cc1noc(C2CCN(C(=O)CC[C@@H](C)[C@H]3CC[C@H]4[C@@H]5CC=C6C[C@@H](O)CC[C@]6(C)[C@H]5CC[C@]34C)CC2)n1` [Example 505, (R)-4-((3S,8S,9S,10R,13R,14S,17R)-3-hydroxy-10,13-dimethyl-2,3,4,7,8,9,10,11,12,13,14,15,16,17-tetradecahydro-1H-cyclopenta[a]phenanthren-17-yl)-1-(4-(3-methyl-1,2,4-oxadiazol-5-yl)piperidin-1-yl)pentan-1-one]: the IC50 was under 250 nM.

`Cc1noc(OC2CCN(C(=O)CC[C@@H](C)[C@H]3CC[C@H]4[C@@H]5CC=C6C[C@@H](O)CC[C@]6(C)[C@H]5CC[C@]34C)CC2)n1` [Example 506, (R)-4-((3S,8S,9S,10R,13R,14S,17R)-3-hydroxy-10,13-dimethyl-2,3,4,7,8,9,10,11,12,13,14,15,16,17-tetradecahydro-1H-cyclopenta[a]phenanthren-17-yl)-1-(4-((3-methyl-1,2,4-oxadiazol-5-yl)oxy)piperidin-1-yl)pentan-1-one] registered an IC50 of under 250 nM.

In the case of `C[C@H](CCC(=O)N1CCC[C@H](Oc2cnn(C)c2)C1)[C@H]1CC[C@H]2[C@@H]3CC=C4C[C@@H](O)CC[C@]4(C)[C@H]3CC[C@]12C` [Example 517, (4R)-4-[(1R,3aS,3bS,7S,9aR,9bS,11aR)-7-hydroxy-9a,11a-dimethyl-1H,2H,3H,3aH,3bH,4H,6H,7H,8H,9H,9aH,9bH,10H,11H,11aH-cyclopenta[a]phenanthren-1-yl]-1-[(3S)-3-[(1-methyl-1H-pyrazol-4-yl)oxy]piperidin-1-yl]pentan-1-one], the 50% inhibitory concentration (IC50) was under 250 nM.

Consider `C[C@H](CCC(=O)N1CCC[C@@H](Oc2cnn(C)c2)C1)[C@H]1CC[C@H]2[C@@H]3CC=C4C[C@@H](O)CC[C@]4(C)[C@H]3CC[C@]12C` [Example 518, (4R)-4-[(1R,3aS,3bS,7S,9aR,9bS,11aR)-7-hydroxy-9a,11a-dimethyl-1H,2H,3H,3aH,3bH,4H,6H,7H,8H,9H,9aH,9bH,10H,11H,11aH-cyclopenta[a]phenanthren-1-yl]-1-[(3R)-3-[(1-methyl-1H-pyrazol-4-yl)oxy]piperidin-1-yl]pentan-1-one], for which the IC50 is under 250 nM.

For `C[C@H](CCC(=O)N1CCC[C@H](Oc2ccncc2)C1)[C@H]1CC[C@H]2[C@@H]3CC=C4C[C@@H](O)CC[C@]4(C)[C@H]3CC[C@]12C` [Example 520, (R)-4-((3S,8S,9S,10R,13R,14S,17R)-3-hydroxy-10,13-dimethyl-2,3,4,7,8,9,10,11,12,13,14,15,16,17-tetradecahydro-1H-cyclopenta[a]phenanthren-17-yl)-1-((S)-3-(pyridin-4-yloxy)piperidin-1-yl)pentan-1-one], the IC50 was under 250 nM.

As for `C[C@H](CCC(=O)N1CCC[C@@H](Oc2ccncc2)C1)[C@H]1CC[C@H]2[C@@H]3CC=C4C[C@@H](O)CC[C@]4(C)[C@H]3CC[C@]12C` [Example 521, (R)-4-((3S,8S,9S,10R,13R,14S,17R)-3-hydroxy-10,13-dimethyl-2,3,4,7,8,9,10,11,12,13,14,15,16,17-tetradecahydro-1H-cyclopenta[a]phenanthren-17-yl)-1-((R)-3-(pyridin-4-yloxy)piperidin-1-yl)pentan-1-one], the 50% inhibitory concentration (IC50) is under 250 nM.

In the case of `C[C@H](CCC(=O)N1CCC(CN2CCOC(C)(C)C2=O)CC1)[C@H]1CC[C@H]2[C@@H]3CC=C4C[C@@H](O)CC[C@]4(C)[C@H]3CC[C@]12C` [Example 522, 4-({1-[(4R)-4-[(1R,3aS,3bS,7S,9aR,9bS,11aR)-7-hydroxy-9a,11a-dimethyl-1H,2H,3H,3aH,3bH,4H,6H,7H,8H,9H,9aH,9bH,10H,11H,11aH-cyclopenta[a]phenanthren-1-yl]pentanoyl]piperidin-4-yl}methyl)-2,2-dimethylmorpholin-3-one], the IC50 is under 250 nM.

As to `C[C@H](CCC(=O)N1CCC(C)(CN2CCOC(C)(C)C2=O)CC1)[C@H]1CC[C@H]2[C@@H]3CC=C4C[C@@H](O)CC[C@]4(C)[C@H]3CC[C@]12C` [Example 523, 4-((1-((R)-4-((3S,8S,9S,10R,13R,14S,17R)-3-hydroxy-10,13-dimethyl-2,3,4,7,8,9,10,11,12,13,14,15,16,17-tetradecahydro-1H-cyclopenta[a]phenanthren-17-yl)pentanoyl)-4-methylpiperidin-4-yl)methyl)-2,2-dimethylmorpholin-3-one], the IC50 is under 250 nM.

`C[C@H](CCC(=O)N1CCC(N2CCOC(C)(C)C2=O)CC1)[C@H]1CC[C@H]2[C@@H]3CC=C4C[C@@H](O)CC[C@]4(C)[C@H]3CC[C@]12C` [Example 524, 4-(1-((R)-4-((3S,8S,9S,10R,13R,14S,17R)-3-hydroxy-10,13-dimethyl-2,3,4,7,8,9,10,11,12,13,14,15,16,17-tetradecahydro-1H-cyclopenta[a]phenanthren-17-yl)pentanoyl)piperidin-4-yl)-2,2-dimethylmorpholin-3-one] had an IC50 of 250 to 1000 nM.

`C[C@H](CCC(=O)N1CCC(N2CCOCC2=O)CC1)[C@H]1CC[C@H]2[C@@H]3CC=C4C[C@@H](O)CC[C@]4(C)[C@H]3CC[C@]12C` [Example 525, 4-(1-((R)-4-((3S,8S,9S,10R,13R,14S,17R)-3-hydroxy-10,13-dimethyl-2,3,4,7,8,9,10,11,12,13,14,15,16,17-tetradecahydro-1H-cyclopenta [a]phenanthren-17-yl)pentanoyl)piperidin-4-yl)morpholin-3-one] registered a half-maximal inhibitory concentration (IC50) of under 250 nM.

For `C[C@H](CCC(=O)N1CC[C@H](NC(=O)c2cnn(C)c2)C1)[C@H]1CC[C@H]2[C@@H]3CC=C4C[C@@H](O)CC[C@]4(C)[C@H]3CC[C@]12C` [Example 526, N-[(3S)-1-[(4R)-4-[(1R,3aS,3bS,7S,9aR,9bS,11aR)-7-hydroxy-9a,11a-dimethyl-1H,2H,3H,3aH,3bH,4H,6H,7H,8H,9H,9aH,9bH,10H,11H,11aH-cyclopenta[a]phenanthren-1-yl]pentanoyl]pyrrolidin-3-yl]-1-methyl-1H-pyrazole-4-carboxamide], the IC50 is under 250 nM.

Turning to `Cc1noc(C(=O)N[C@H]2CCN(C(=O)CC[C@@H](C)[C@H]3CC[C@H]4[C@@H]5CC=C6C[C@@H](O)CC[C@]6(C)[C@H]5CC[C@]34C)C2)n1` [Example 527, N—((S)-1-((R)-4-((3S,8S,9S,10R,13R,14S,17R)-3-hydroxy-10,13-dimethyl-2,3,4,7,8,9,10,11,12,13,14,15,16,17-tetradecahydro-1H-cyclopenta[a]phenanthren-17-yl)pentanoyl)pyrrolidin-3-yl)-3-methyl-1,2,4-oxadiazole-5-carboxamide], the IC50 is under 250 nM.

Molecule `C[C@H](CCC(=O)N1CC[C@H](NC(=O)c2ccncn2)C1)[C@H]1CC[C@H]2[C@@H]3CC=C4C[C@@H](O)CC[C@]4(C)[C@H]3CC[C@]12C` [Example 528, N—((S)-1-((R)-4-((3S,8S,9S,10R,13R,14S,17R)-3-hydroxy-10,13-dimethyl-2,3,4,7,8,9,10,11,12,13,14,15,16,17-tetradecahydro-1H-cyclopenta[a]phenanthren-17-yl)pentanoyl)pyrrolidin-3-yl)pyrimidine-4-carboxamide] had an IC50 of under 250 nM.

In turn, `C[C@H](CCC(=O)N1CC[C@H](NC(=O)c2cnccn2)C1)[C@H]1CC[C@H]2[C@@H]3CC=C4C[C@@H](O)CC[C@]4(C)[C@H]3CC[C@]12C` [Example 529, N—((S)-1-((R)-4-((3S,8S,9S,10R,13R,14S,17R)-3-hydroxy-10,13-dimethyl-2,3,4,7,8,9,10,11,12,13,14,15,16,17-tetradecahydro-1H-cyclopenta[a]phenanthren-17-yl)pentanoyl)pyrrolidin-3-yl)pyrazine-2-carboxamide] gave a half-maximal inhibitory concentration (IC50) of under 250 nM.

The molecule `C[C@H](CCC(=O)N1CC[C@H](Nc2ccncc2)C1)[C@H]1CC[C@H]2[C@@H]3CC=C4C[C@@H](O)CC[C@]4(C)[C@H]3CC[C@]12C` [Example 530, (4R)-4-[(1R,3aS,3bS,7S,9aR,9bS,11aR)-7-hydroxy-9a,11a-dimethyl-1H,2H,3H,3aH,3bH,4H,6H,7H,8H,9H,9aH,9bH,10H,11H,11aH-cyclopenta[a]phenanthren-1-yl]-1-[(3S)-3-[(pyridin-4-yl)amino]pyrrolidin-1-yl]pentan-1-one] came in with an IC50 of 250 to 1000 nM.

For the molecule `C[C@H](CCC(=O)N1CC[C@H](Nc2ccncn2)C1)[C@H]1CC[C@H]2[C@@H]3CC=C4C[C@@H](O)CC[C@]4(C)[C@H]3CC[C@]12C` [Example 531, (R)-4-((3S,8S,9S,10R,13R,14S,17R)-3-hydroxy-10,13-dimethyl-2,3,4,7,8,9,10,11,12,13,14,15,16,17-tetradecahydro-1H-cyclopenta[a]phenanthren-17-yl)-1-((S)-3-(pyrimidin-4-ylamino)pyrrolidin-1-yl)pentan-1-one], the IC50 is under 250 nM.
